The results in this text go back to patent US5254590A, “Acylaminophenol compounds” (Adir et Compagnie, priority 1991, dated 1993).

Test [1] concerns the target T1, acyl CoA-cholesterol-acyl transferase (ACAT) (Mus musculus, UniProt Q61263).
T1 construct: in the presence of a macrophage J 774 homogenate; endogenous in cells; host or cells: J774 macrophage line
T1 sequence (Q61263 1-540): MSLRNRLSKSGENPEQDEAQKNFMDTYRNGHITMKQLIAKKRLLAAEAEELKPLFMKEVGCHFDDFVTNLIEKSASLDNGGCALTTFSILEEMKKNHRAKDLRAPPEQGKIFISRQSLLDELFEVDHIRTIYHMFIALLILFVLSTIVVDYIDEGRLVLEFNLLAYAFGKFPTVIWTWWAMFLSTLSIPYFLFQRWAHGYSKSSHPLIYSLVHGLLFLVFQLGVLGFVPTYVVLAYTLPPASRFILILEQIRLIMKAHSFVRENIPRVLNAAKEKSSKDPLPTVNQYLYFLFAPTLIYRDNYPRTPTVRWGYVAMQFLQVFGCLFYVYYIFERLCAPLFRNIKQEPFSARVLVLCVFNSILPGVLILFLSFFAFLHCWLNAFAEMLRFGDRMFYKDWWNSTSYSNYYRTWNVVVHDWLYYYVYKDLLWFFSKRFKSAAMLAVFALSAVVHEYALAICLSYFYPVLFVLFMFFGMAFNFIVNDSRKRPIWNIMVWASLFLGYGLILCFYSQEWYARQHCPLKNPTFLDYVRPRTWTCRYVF
Put plainly: Determination of ACAT: inhibition of esterification of free intracellular cholesterol in macrophage line J 774. It counts as cell-based. Conditions: J774; macrophage line J 774, 24 hours, 10^-5 M, relative to placebo; read-out: percentage inhibition of ACAT activity of the macrophages. Here is the method:
The test products or the placebo are incubated in the presence of the macrophages for 24 hours at the concentration of 10^-5 M. The efficacy of these compounds is evaluated by calculating the ACAT activity of the macrophages incubated in the presence of a product relative to that of macrophages incubated in the presence of the placebo and is therefore expressed as a percentage inhibition.

Test [2] has as its system hypercholesterolemic hamsters. Kind of test: Effect in hypercholesterolemic hamsters (total plasma cholesterol). The format is in vivo, Syrian golden hamsters. The following applies: orally, 10 mg/kg/day. Here is the method:
Syrian golden hamsters were subjected to a 0.2% hypercholesterolemic diet for 3 weeks. They were then treated orally either by the vehicle for the compounds tested (control group), or by a reference product, or by an original product at the dose of 10 mg/kg/day for 2 weeks. At the end of the treatment, the total cholesterol was measured in the plasma.

In test [3] the target is T1, acyl CoA-cholesterol-acyl transferase (ACAT). Put plainly: Determination of ACAT: inhibition of esterification of free intracellular cholesterol in macrophage line J 774. It counts as cell-based.
In the next test the test system is human LDLs. Put plainly: Modification of the LDLs by copper sulfate (MDA production, lipid peroxidation). The format is biochemical. Conditions: 24 hours, copper sulfate 5×10^-6 M; probucol as reference. Here is the method:
The human LDLs are incubated for 24 hours in the presence of copper sulfate (5×10^-6 M) with or without the test compounds (concentrations between 10^-7 M and 10^-4 M). After incubation, the peroxidation of the LDLs is evaluated by electrophoresis on agar gel and by the formation of one of the products of lipid peroxidation: malondialdehyde (MDA) according to the technique described by […] et al. (J. Clin. Invest. 77, 641-644, 1986).

`CCCCCCCCCC(C)C(=O)Nc1cc(C)c(O)c(C)c1C` (stereo not drawn) [Example 4, 2,3,6-Trimethyl-4-(2-methylundecanamido)phenol]: the inhibition (commonly the share of the control response that was lost under treatment) at 10 µM in test [1] is 91%.

As to `CCCCCCCCCC(C)(C)C(=O)Nc1cc(C)c(O)c(C)c1C` [Example 14, 2,3,6-Trimethyl-4-(2,2-dimethylundecanamido)phenol], the inhibition at 10 µM in test [1] amounted to 92%.

Regarding `CCCCCCCCCCC(C)(C)C(=O)Nc1cc(C)c(O)c(C)c1C` [Example 15, 2,3,6-Trimethyl-4-(2,2-dimethyldodecanamido)phenol], the inhibition at 10 µM in test [1] amounted to 93%.

Regarding `CCCCCCCCCCCC(C)(C)C(=O)Nc1cc(C)c(O)c(C)c1C` [Example 16, 2,3,6-Trimethyl-4-(2,2-dimethyltridecanamido)phenol], the inhibition at 10 µM in test [1] worked out at 96%.

`CCCCCCCC/C=C\CCCCCCC(C)C(=O)Nc1cc(C)c(O)c(C)c1C` (stereo not drawn) [Example 20, 2,3,6-Trimethyl-4-(2-methyl-9-octadecenamido)phenol cis isomer]: the “hypocholesterolemiant activity, level of total plasma cholesterol” value in test [2] (15 days (2 weeks), 0.2% hypercholesterolemic diet) was “normalizes the level of cholesterol in the hypercholesterolemic animals”. Moreover, in test [2] (same conditions), the “hypocholesterolemiant activity compared with reference products (Ref. 1 and Ref. 2)” value is given as “considerably higher than that of the reference products tested”. In addition, the inhibition at 10 µM in test [1] is 95%.

On to `CCCCC/C=C\C/C=C\CCCCCCCC(=O)Nc1cc(C)c(O)c(C)c1C` [Example 21, 2,3,6-Trimethyl-4-(9,12-octadecadienamido)phenol cis, cis isomer], for which the inhibition at 10 µM in test [1] was 90%.

Consider `CCCCCC=CCC=CCC=CCCCCC(=O)Nc1cc(C)c(O)c(C)c1C` [Example 23, 2,3,6-Trimethyl-4-(6,9,12-octadecatrienamido)phenol], for which the inhibition at 10 µM in test [1] turned out to be 94%.

Regarding `CCCCCCCCCCC1(C(=O)Nc2cc(C)c(O)c(C)c2C)CCCC1` [Example 57, 2,3,6-Trimethyl-4-[(1-decyl-cyclopent-1-yl)carboxamido]phenol], the inhibition at 10 µM in test [1] was 98%.

On to `CCCCC/C=C\C/C=C\CCCCCCC(C)C(=O)Nc1cc(C)c(O)c(C)c1C` (stereo not drawn) [Example 58, 2,3,6-Trimethyl-4-(2-methyl-9,12-octadecadienamido)phenol, cis, cis isomer], for which the inhibition at 10 µM in test [1] is 97%.

For `CCCCCCCC/C=C\CCCCCCCC(=O)Nc1c(OC)cc(OC)cc1OC` [Ref. 1, 2,4,6-trimethoxy-(9-(Z)octadecenamido)benzene], the 50% inhibitory concentration (IC50) (commonly the midpoint of a concentration-inhibition curve) in test [3] turned out to be 3 µM. In addition, the “antioxidant activity towards human LDLs (in words)” value in the test on human LDLs was “completely lack this activity”. Moreover, the inhibition at 10 µM in test [1] stood at 75%.

On to `CCCCCCCCCCC(C)(C)C(=O)Nc1c(OC)cc(OC)cc1OC` [Ref. 2, 2,4,6-trimethoxy-(2,2-dimethyldodecanamido)benzene], for which, in the test with human LDLs, the “antioxidant activity towards human LDLs (in words)” value is “completely lack this activity”.
